The term IC50 denotes the midpoint of a concentration-inhibition curve.

Common to all, as to format: cell-based
Assay [1] concerns HBeAg. Nature of the assay: HBeAg, multiplex assay, HBV-infected PHH. Conditions: Hepatitis B virus. The method, then:
Fresh primary human hepatocytes (PXB-PHH) harvested from humanized mice (uPA/SCID mice)—herein called PHH—were obtained from PhoenixBio Co., Ltd (Japan). Cells were seeded on a collagen I-coated plate at the following cell density: 35,000 cells/well (384-well), 70,000 cells/well (96-well), or, 400,000 cells/well (24-well) in modified hepatocyte clonal growth medium (dHCGM). dHCGM is a DMEM medium containing 100 U/ml Penicillin, 100 μg/ml Streptomycin, 20 mM Hopes, 44 mM NaHCO3, 15 μg/ml L-proline, 0.25 μg/ml insulin, 50 nM Dexamethazone, 5 ng/ml EGF, 0.1 mM Asc-2P, 2% DMSO and 10% FBS (Ishida et al., 2015). Cells were cultured at 37° C. incubator in a humidified atmosphere with 5% CO2. Culture medium was replaced 24 h post-plating and every 2 days until harvest.
Following 4 day of maturation with 1 μM MB-1, HLC were incubated with HBV (purified from CHB individuals) at multiplicity of infection (MOI) 10-40 without PEG for 24 hr; virus inoculum was removed the following day. […] Compound treatment in HLC and PHH was started at day 3 post infection. Compound (in powder) was dissolved in DMSO; the final concentration of DMSO added to cells is 1%. Fresh compound was replenished every 2 day until cells were harvested at day 10 (PHH), or day 14 (HLC). Compound effect on HBV and cellular toxicity was measured by multiplex assay (HBsAg, HBeAg, albumin), branched DNA (pgRNA), or digital PCR (cccDNA) and depicted as % of inhibition compared to DMSO control. Graphs were prepared using Spotfire software.
A custom, Luminex-based multiplex assay that simultaneously measured HBeAg, albumin, and HBsAg was developed by Radix BioSolutions (Georgetown, Tex.). This is a sandwich immunoassay; each capture antibody was coupled with xMAP™ Luminex magnetic beads. The dynamic ranges of analyte detection are as follows: HBeAg (1-316 ng/ml), albumin (3.1-10,000 ng/ml), and HBsAg (0.1-100 ng/ml) with coefficient variant (CV) […]. Samples were read on FlexMAP 3D (Luminex) and analyzed by Genedata software.

Assay [2] concerns HBV DNA. Nature of the assay: HBV DNA in culture medium of HBV-infected PHH. The note with it: Hepatitis B virus; for IC50: 240 h. From the text: FIG. 8: Establishment of dPCR assay for cccDNA quantification. […] A 3.2-kb, linearized plasmid HBV is used as a standard curve for relative quantification of HBV DNA by TaqMan-PCR. […] (B) Testing primer & PCR specificity and removal of excess RC-DNA. In contrast to TaqMan-PCR (relative quantification method), digital PCR (dPCR) is an absolute quantification method without the need of standard curve. […] First step—Testing primer and PCR specificity. Serum-derived HBV (contains RC-DNA, devoid of cccDNA) was used as a DNA template for dPCR using 2 sets of primers (for HBV core and cccDNA region) (Werle-Lapostolle et al., 2004). Samples were amplified by dPCR on QuantStudio 12K Flex Real-Time PCR System (AB); 4 subarrays (256 through-holes) were used for each sample. […] Second step—Removal of excess RC-DNA. PHH seeded in 96-well were infected with HBV. At day 6 pi, cell lysates were digested with Plasmid safe, ATP-dependent, DNAse (PSAD), T5 exonuclease, or, T5 exonuclease followed by EcoRI, for 1 hr at 37° C. Samples were amplified by dPCR using cccDNA primers on QuantStudio 12K Flex Real-Time PCR System (AB); 4 subarrays (256 through-holes) were used for each sample. […] Fresh medium and compound was replenished every 2 day. At day 10 pi, culture media were harvested and measured for HBV DNA, HBsAg, and HBeAg. Albumin was used as a surrogate of in vitro tox marker. Cells were lysed and treated with T5 exonuclease, cccDNA was then measured by dPCR on QuantStudio 12K Flex Real-Time PCR System (AB); 4 subarrays (256 through-holes) were used for each sample. […] Cells were treated with compounds at the indicated concentrations starting from day 3 post infection (patient-derived HBV, GT D). Fresh medium and compound was replenished every 2 day. Cells were harvested at day 10 pi; viral markers and albumin were measured from culture medium.
HBV from sera of CHB individuals were purified using OptiPrep™ (Axis-Shield, Norway) density gradient. Briefly, OptiPrep™ stock solution (60%) was diluted to 50% and 10% in PBS; equal volume of each solution was then added into SW41 tubes (BD Biosciences). Linear gradient was performed by placing the tubes on Gradient Master 108™ (Biocomp) at setting: 800, 25 rpm for 30″. Two hundred microliter (200 μl) of serum was overlaid on the top of gradient and samples were centrifuged at 100,000×g for 2 hours at 4° C. […] Fractions containing the peak of HBV DNA were pooled and used as virus inoculum for all infection experiments. All fractions were stored at −80° C. until used.
Fresh primary human hepatocytes (PXB-PHH) harvested from humanized mice (uPA/SCID mice)—herein called PHH—were obtained from PhoenixBio Co., Ltd (Japan).

Assay [3] relates to HBsAg. Put plainly: HBsAg, HBV-infected HepaRG. The note with it: Hepatitis B virus.

pIC50: −log10 of the molar value. Where two headings read alike, the source gives them in different places.

For `O=C(NC(CO)CO)c1c[nH]c2ncc(C3CC3)nc12` [compound 7], the IC50 in assay [1] (240 h, read-out: HBeAg IC50 (μM) Median, PHH, patient-derived HBV GT A, MOI 40, day 10 pi) stood at 0.4 µM; in assay [1] (240 h, read-out: HBeAg IC50 (μM) Median, PHH, patient-derived HBV GT B, MOI 40, day 10 pi) it was 0.31 µM; in assay [1] (240 h, read-out: HBeAg IC50 (μM) Median, PHH, patient-derived HBV GT C, MOI 40, day 10 pi), 0.35 µM; in assay [1] (240 h, read-out: HBeAg IC50 (μM) Median, PHH, patient-derived HBV GT D, MOI 40, day 10 pi (Table 5)), 0.31 µM; in assay [1] (read-out: HBeAg IC50 (μM) Median, PHH, HepG2.2.15-derived HBV GT D, MOI 40) it was 15.3 µM; in assay [1] (read-out: HBeAg IC50 (μM) Median, PHH, HepG2.2.15-derived HBV GT D, MOI 125), 15.9 µM. Also, the half-inhibitory concentration (IC50) in assay [1] (read-out: HBeAg IC50 (μM) Median, PHH, patient-derived HBV (GT D)) came to 0.39 µM; in assay [1] (read-out: HBeAg IC50 (μM) Median, PHH, patient-derived HBV GT D, MOI 40 (Table 6)), 0.32 µM; in assay [1] (read-out: HBeAg IC50 (μM) Median, PHH, patient-derived HBV GT D, MOI 125), 0.57 µM; in assay [2] (read-out: HBV DNA IC50 (μM) Median, PHH, patient-derived HBV GT A, MOI 40, day 10 pi) it was 0.025 µM; in assay [2] (read-out: HBV DNA IC50 (μM) Median, PHH, patient-derived HBV GT B, MOI 40, day 10 pi), 0.023 µM; in assay [2] (read-out: HBV DNA IC50 (μM) Median, PHH, patient-derived HBV GT C, MOI 40, day 10 pi), 0.02 µM. Also, the half-maximal inhibitory concentration (IC50) in assay [2] (read-out: HBV DNA IC50 (μM) Median, PHH, patient-derived HBV GT D, MOI 40, day 10 pi (Table 5)) was 0.023 µM; in assay [3] (read-out: HBsAg IC50 (μM) Median, HepaRG, HepG2.2.15-derived HBV GT D, MOI 40), 9.01 µM; in assay [3] (read-out: HBsAg IC50 (μM) Median, HepaRG, HepG2.2.15-derived HBV GT D, MOI 125), 10.3 µM; in assay [3] (read-out: HBsAg IC50 (μM) Median, HepaRG, patient-derived HBV GT D, MOI 40), 0.67 µM; in assay [3] (read-out: HBsAg IC50 (μM) Median, HepaRG, patient-derived HBV GT D, MOI 125) it was 0.88 µM. Moreover, the pIC50 was 6.35 to 6.62 in assay [1] (read-out: HBeAg IC50s, PHH, patient-derived HBV GT A-D, range stated in text for HBsAg & HBeAg) and 7.60 to 7.70 in assay [2] (read-out: HBV DNA IC50s, PHH, patient-derived HBV GT A-D).

The values are drawn from patent US20230248723A1, “PYRROLO[2,3-B]PYRAZINE COMPOUNDS AS CCCDNA INHIBITORS FOR THE TREATMENT OF HEPATITIS B VIRUS (HBV) INFECTION” (Hoffmann-La Roche Inc., priority 2017, published 2023).
